# Measured values from patent US20250304990A1, “HERBICIDE RESISTANCE” (SYNGENTA CROP PROTECTION AG, priority 2021, published 2025).
# Several values for one entry are separate records, joined by “and”; a condition that tells them apart may be missing. Equal entries are not always repeated.
# Experiments:
# [1] = test system: Cf-496-2; assay: Dose response test, growth in 96-well plates; type: cell-based, Chlorella fusca; conditions: strain Cf-496-2; no growth, visual inspection
# [2] = test system: Cf-496-47; assay: Dose response test, growth in 96-well plates; type: cell-based, Chlorella fusca; conditions: strain Cf-496-47; no growth, visual inspection
# [3] = test system: Cf-496-75; assay: Dose response test, growth in 96-well plates; type: cell-based, Chlorella fusca; conditions: strain Cf-496-75; no growth, visual inspection
# [4] = test system: D4291 (WT Arabidopsis thaliana HST) containing tobacco plant; assay: Herbicide damage score after spraying, Example 3; type: in vivo
# Description: (§1) In order to determine if the newly discovered mutations detailed in Example 1 confer resistance to HST inhibiting compounds when expressed in plants, GM tobacco lines are to be produced and tested with HST inhibiting compounds. Transgenic tobacco plants expressing the Arabidopsis HST gene with and without mutations were tested.
# (§2) Populations of transgenic tobacco comprising 20-30 transgenic events per plant transformation constructs were generated as described in Example 2. These lines were clonally propagated and 1 clone per event was sprayed with 500, 100 or 50 g ai/ha of compound 1+0.2% Genapol X080 with a spray volume of 200 L/Ha (“g ai/ha” refers to grams of active compound per hectare).
# (§3) Herbicidal damage was visually assessed across the population and a herbicide damage score given at 7 and 14 days. A score of 0 indicates no visible damage or stunting whereas a score of 100 indicates a complete death of the plant. 20 transgenic events (i.e. individual transgenic plants) from each GM tobacco line were transplanted to soil 1 week prior to spraying with HST inhibiting compounds. WT tobacco was included as a control.
# (§4) The values in Tables 8 to 14 below refer to percentage of damage to the tested plants and show the damage scores for 20 populations of plants expressing either Arabidopsis WT HST gene (SEQ ID NO. 14), the Arabidopsis HST mutated gene according to SEQ ID NO. 27, the Arabidopsis HST mutated gene according to SEQ ID NO. 28, the Arabidopsis HST mutated gene according to SEQ ID NO. 29, the Arabidopsis HST mutated gene according to SEQ ID NO. 30, or the Arabidopsis HST mutated gene according to SEQ ID NO. 31. A control population of wild-type Samsun tobacco was also assessed for herbicide damage. […] However the mutated versions of the HST gene carrying the F276I, V277A, F280I or F280L mutations (SEQ ID NOs: 27, 28, 30 or 31) clearly display increased tolerance.
# [5] = test system: D4292 (F276I mutant Arabidopsis thaliana HST) containing tobacco plant; assay: Herbicide damage score after spraying, Example 3; type: in vivo; conditions: T1 B5u 500 gai/ha, averaged across transgenic population
# Description: as §1, §2, §3, §4
# [6] = test system: D4293 (V277A mutant Arabidopsis thaliana HST) containing tobacco plant; assay: Herbicide damage score after spraying, Example 3; type: in vivo; conditions: T1 B5u 500 gai/ha, averaged across transgenic population
# Description: as §1, §2, §3, §4
# [7] = test system: D4294 (T278N mutant Arabidopsis thaliana HST) containing tobacco plant; assay: Herbicide damage score after spraying, Example 3; type: in vivo; conditions: T1 B5u 500 gai/ha; D4294 T278N; averaged across transgenic population
# Description: as §1, §2, §3, §4
# [8] = test system: D4295 (F280I mutant Arabidopsis thaliana HST) containing tobacco plant; assay: Herbicide damage score after spraying, Example 3; type: in vivo; conditions: T1 B5u 500 gai/ha, averaged across transgenic population
# Description: as §1, §2, §3, §4
# [9] = test system: WT tobacco; assay: Herbicide damage score after spraying, Example 3; type: in vivo; conditions: T1 B5u 500 gai/ha; WT tobacco control; per plant
# Description: as §1, §2, §3, §4
# [10] = test system: D4424 (WT Oryza sativa HST) containing tobacco plant; assay: Herbicide damage score after spraying, Example 4; type: in vivo
# Description: as §1, with “were” for “are to be”, “Oryza sativa” for “Arabidopsis”
# (§5) Populations of transgenic tobacco comprising 20-30 transgenic events per plant transformation constructs were generated as described in Example 2. These lines were clonally propagated and 1 clone per event was sprayed with 500, 100 or 50 g ai/ha of compound 1+0.2% (w/v) Genapol X080 with a spray volume of 200 L/Ha. (“g ai/ha” refers to grams of active compound per hectare).
# as §3, with “control. The mutated genes are identified in Table 16 below.” for “control.”
# (§6) The values in Tables 17 to 23 below refer to percentage of damage to the tested plants and show the damage scores for 20 populations of plants expressing either Oryza sativa WT HST gene (SEQ ID NO. 18), the Oryza sativa HST mutated gene according to SEQ ID NO. 47, the Oryza sativa HST mutated gene according to SEQ ID NO. 48, the Oryza sativa HST mutated gene according to SEQ ID NO. 49, the Oryza sativa HST mutated gene according to SEQ ID NO. 50, or the Oryza sativa HST mutated gene according to SEQ ID NO. 51. A control population of wild-type Samsun tobacco was also assessed for herbicide damage. […] However the mutated versions of the HST gene carrying the F262I, V263A, […], or F266L mutations (SEQ ID NOs: 47, 48, 50 or 51) clearly display increased tolerance.
# [11] = test system: D4425 (F262I mutant Oryza sativa HST) containing tobacco plant; assay: Herbicide damage score after spraying, Example 4; type: in vivo; conditions: T1 B5u 500 gai/ha, averaged across transgenic population
# Description: as §1, with “were” for “are to be”, “Oryza sativa” for “Arabidopsis”
# as §5
# as §3, with “control. The mutated genes are identified in Table 16 below.” for “control.”
# as §6
# [12] = test system: D4426 (V263A mutant Oryza sativa HST) containing tobacco plant; assay: Herbicide damage score after spraying, Example 4; type: in vivo; conditions: T1 B5u 500 gai/ha; D4426 V263A; averaged across transgenic population
# Description: as §1, with “were” for “are to be”, “Oryza sativa” for “Arabidopsis”
# as §5
# as §3, with “control. The mutated genes are identified in Table 16 below.” for “control.”
# as §6
# [13] = test system: D4427 (T264N mutant Oryza sativa HST) containing tobacco plant; assay: Herbicide damage score after spraying, Example 4; type: in vivo; conditions: T1 B5u 500 gai/ha
# Description: as §1, with “were” for “are to be”, “Oryza sativa” for “Arabidopsis”
# as §5
# as §3, with “control. The mutated genes are identified in Table 16 below.” for “control.”
# as §6
# [14] = test system: D4428 (F266I mutant Oryza sativa HST) containing tobacco plant; assay: Herbicide damage score after spraying, Example 4; type: in vivo; conditions: T1 B5u 500 gai/ha, averaged across transgenic population
# Description: as §1, with “were” for “are to be”, “Oryza sativa” for “Arabidopsis”
# as §5
# as §3, with “control. The mutated genes are identified in Table 16 below.” for “control.”
# as §6
# [15] = test system: D4429 (F266L mutant Oryza sativa HST) containing tobacco plant; assay: Herbicide damage score after spraying, Example 4; type: in vivo; conditions: T1 B5u 500 gai/ha, averaged across transgenic population
# Description: as §1, with “were” for “are to be”, “Oryza sativa” for “Arabidopsis”
# as §5
# as §3, with “control. The mutated genes are identified in Table 16 below.” for “control.”
# as §6
# [16] = test system: WT tobacco; assay: Herbicide damage score after spraying, Example 4; type: in vivo; conditions: T1 B5u 500 gai/ha; WT tobacco (Example 4); per plant
# Description: as §1, with “were” for “are to be”, “Oryza sativa” for “Arabidopsis”
# as §5
# as §3, with “control. The mutated genes are identified in Table 16 below.” for “control.”
# as §6
structure (smiles),measurement,setting,value
"Cc1nn(C)c(=O)c(-c2c(F)ccc(Cl)c2CCc2ccc(C(F)(F)F)cc2)c1OC(=O)C(C)C [B5u, [5-[3-chloro-6-fluoro-2-[2-[4-(trifluoromethyl)phenyl]ethyl]phenyl]-1,3-dimethyl-6-oxo-pyridazin-4-yl]2-methylpropanoate]",LD (lethal dose),[1],6.25 ppm
same,LD (lethal dose),[2],>100 ppm
same,LD (lethal dose),[3],6.25 ppm
same,Average percentage damage,"[4]; T1 B5u 500 gai/ha, D4291, mutation n.a., averaged across transgenic population",55%
same,tolerance to herbicide,[4]; overexpression of Arabidopsis HST gene (SEQ ID NO.14) in tobacco,does not increase tolerance
same,Average percentage damage,[5],28%
same,Average percentage damage,[6],22%
same,Average percentage damage,[7],76%
same,Average percentage damage,[8],35%
same,percentage of damage,[9],95% and 90%
same,Average percentage damage,"[10]; T1 B5u 500 gai/ha, D4424, mutation n.a., averaged across transgenic population",31%
same,tolerance to herbicide,[10]; overexpression of Oryza sativa HST gene (SEQ ID NO.18) in tobacco,does not increase tolerance
same,Average percentage damage,[11],38%
same,Average percentage damage,[12],24%
same,percentage of damage,"[13]; D4427 OsHST V003 T264N, per event",50%
same,Average percentage damage,"[13]; D4427 T264N, averaged across transgenic population",67%
same,Average percentage damage,[14],56%
same,Average percentage damage,[15],40%
same,percentage of damage,[16],98% and 97% and 96% and 95%
